Laboratory results as given in PubChem BioAssay (NCI).
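The compound was tested at five concentrations on cells cultured in 96-well plates, with a 48-hour exposure period. GI50: concentration for 50% inhibition of growth. TGI: total growth inhibition.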

Assays:
Assay in all cases: NCI-60 cell line screen, 48 h
DU-145 prostate = system: DU-145 prostate
HCT-15 colon = system: HCT-15 colon
MDA-MB-231 breast = system: MDA-MB-231 breast
NCI-H226 lung = system: NCI-H226 lung
MALME-3M melanoma = system: MALME-3M melanoma
T-47D breast = system: T-47D breast
HT29 colon = system: HT29 colon
UO-31 renal = system: UO-31 renal
OVCAR-3 ovarian = system: OVCAR-3 ovarian
ACHN renal = system: ACHN renal

Molecule O=C(O)c1c(=O)cccc2ssc12 has a GI50 (DU-145 prostate) of 1.92 µM, a TGI (DU-145 prostate) of 3.73 µM and a GI50 (HCT-15 colon) of 1730 nM. For the same molecule, the TGI (HCT-15 colon) was 3.52 µM, the GI50 (MDA-MB-231 breast) was 2290 nM and the TGI (MDA-MB-231 breast) was 4.67 µM. For the same molecule, the GI50 (NCI-H226 lung) was 1.87 µM, the TGI (NCI-H226 lung) was 3.6 µM and the GI50 (MALME-3M melanoma) was 2220 nM. It also gave a TGI (MALME-3M melanoma) of 4.45 µM, a GI50 (T-47D breast) of 2150 nM and a TGI (T-47D breast) of 5.24 µM. The GI50 (HT29 colon) was 1890 nM, the TGI (HT29 colon) was 3.64 µM and the GI50 (UO-31 renal) was 1660 nM. For the same molecule, the TGI (UO-31 renal) was 3.44 µM, the GI50 (OVCAR-3 ovarian) was 1.81 µM and the TGI (OVCAR-3 ovarian) was 3.38 µM. For the same molecule, the GI50 (ACHN renal) was 1720 nM and the TGI (ACHN renal) was 3.21 µM.
In the case of CCCCCCCCCNC(=O)/C=C/c1ccc(O)c(O)c1, the GI50 (DU-145 prostate) is reported as 17 µM, the TGI (DU-145 prostate) is reported as 82.1 µM and the GI50 (HCT-15 colon) is reported as 5250 nM. The TGI (HCT-15 colon) was 19.9 µM, the GI50 (MDA-MB-231 breast) was 13200 nM and the TGI (MDA-MB-231 breast) was 34.7 µM. The GI50 (NCI-H226 lung) was 10.4 µM, the TGI (NCI-H226 lung) was 25.5 µM and the GI50 (MALME-3M melanoma) was 13200 nM. It also gave a TGI (MALME-3M melanoma) of 31.4 µM, a GI50 (T-47D breast) of 15000 nM and a TGI (T-47D breast) of 59.9 µM. For the same molecule, the GI50 (HT29 colon) was 17900 nM, the TGI (HT29 colon) was greater than 100 µM and the GI50 (UO-31 renal) was 1420 nM. For the same molecule, the TGI (UO-31 renal) was 14.9 µM, the GI50 (OVCAR-3 ovarian) was 5.95 µM and the TGI (OVCAR-3 ovarian) was 24.3 µM. It also gave a GI50 (ACHN renal) of 6960 nM and a TGI (ACHN renal) of 21.6 µM.
COc1cc(-c2csc(NC(=O)Nc3ccc(C(F)(F)F)cc3)n2)cc(OC)c1OC showed a GI50 (DU-145 prostate) of 3.22 µM, a TGI (DU-145 prostate) of 12.8 µM and a GI50 (HCT-15 colon) of 1710 nM. The TGI (HCT-15 colon) was 4.09 µM, the GI50 (MDA-MB-231 breast) was 1550 nM and the TGI (MDA-MB-231 breast) was 3.69 µM. The GI50 (NCI-H226 lung) was 2.35 µM, the TGI (NCI-H226 lung) was 8.4 µM and the GI50 (MALME-3M melanoma) was 1850 nM. It also gave a TGI (MALME-3M melanoma) of 4.94 µM, a GI50 (T-47D breast) of 1970 nM and a TGI (T-47D breast) of 7.65 µM. It also gave a GI50 (HT29 colon) of 2390 nM, a TGI (HT29 colon) of 7.08 µM and a GI50 (UO-31 renal) of 1770 nM. It also gave a TGI (UO-31 renal) of 5.29 µM, a GI50 (OVCAR-3 ovarian) of 2 µM and a TGI (OVCAR-3 ovarian) of 5.22 µM. For the same molecule, the GI50 (ACHN renal) was 2110 nM and the TGI (ACHN renal) was 6.13 µM.
With CN1CCN(c2ccc(NC(=O)c3cncnc3Nc3ccc(OCc4ccccn4)c(Cl)c3)cc2)CC1 the GI50 (DU-145 prostate) was 4.28 µM, the TGI (DU-145 prostate) was 8.8 µM and the GI50 (HCT-15 colon) was 961 nM. The TGI (HCT-15 colon) was 3.19 µM, the GI50 (MDA-MB-231 breast) was 2000 nM and the TGI (MDA-MB-231 breast) was 6.56 µM. The GI50 (NCI-H226 lung) was 5.42 µM, the TGI (NCI-H226 lung) was 13 µM and the GI50 (MALME-3M melanoma) was 886 nM. For the same molecule, the TGI (MALME-3M melanoma) was 3.69 µM, the GI50 (T-47D breast) was 1980 nM and the TGI (T-47D breast) was 7.83 µM. It also gave a GI50 (HT29 colon) of 948 nM, a TGI (HT29 colon) of 4.49 µM and a GI50 (UO-31 renal) of 3890 nM. The TGI (UO-31 renal) was 9.97 µM, the GI50 (OVCAR-3 ovarian) was 5.23 µM and the TGI (OVCAR-3 ovarian) was 13 µM. It also gave a GI50 (ACHN renal) of 3770 nM and a TGI (ACHN renal) of 7.87 µM.
